The test system of assay [1] is nuclear beta-catenin in BC-CML cells. The settings on record: background section; cited from earlier work.
Another assay concerns BC CD34+ CML cells. The settings on record: in vitro treatment of the cells; background section; cited from earlier work.
Assay [2] deals with TNF production by macrophage. The note with it: TLR agonist stimulation; literature; cited from earlier work.
For assay [3], the system named is CD34+ BC-CML primary cells. The note with it: background section; including cells carrying T315I mutation; cited from earlier work.
Assay [4] relates to patient-derived BC cells in NSG mice. The settings on record: in vivo treatment for three consecutive weeks; CGP57380 40 mg/kg/d, dasatinib 5 mg/kg/d; background section; cited from earlier work.
The test system of assay [5] is eIF4E phosphorylation in BC GMPs. The note with it: background section; cited from earlier work.
The subject of assay [6] is K562 cells over-expressing eIF4E. The assay is described as follows: Cell cytotoxicity assay (CellTiter-Glo). The class given is cell-based. The note with it: for change of IC50 with treatment duration, K562 cells over-expressing eIF4E: 48 hours extended to 6 days. On the procedure: (§1) Cancer cell lines, MV-4-11 (leukemia), P116.c139 (acute T cell leukemia) and D1.1 (acute T cell leukemia), were purchased from ATCC and cultured according to supplier's recommendations. K562 cells (myelogenous leukemia) over-expressing eIF4E, were also used for the cytotoxicity assay. For cells treated for 48 hours, 5000 cells were seeded in 70 μl of growth medium in black, flat-bottom 96-well plate. For cells treated for six days, 1000 cells were seeded in 70 μl of growth medium in black, flat-bottom 96-well plate. […] 50 μl of the diluted compounds was added to the cells and incubated at 37° C. in 5% CO2. After 48 hours or six days treatment, cell viability was determined by CellTiter-Glo Luminescent Cell Viability Assay (Promega, Madison, Wis.). 120 μl of the reagent was added to the cells and luminescence was measured using Tecan Safire Reader. Data was analysed with Graphpad Prism software and the figures represented indicate the half maximal inhibitory concentration (IC50). Error bars denote standard deviation (SD).
In general terms: Cellular ATP, detected with luciferase, serves as a proxy for viable cell number.

For another assay, the system named is D1.1 cells. The experiment in a line: Cell cytotoxicity assay (CellTiter-Glo). The class given is cell-based. On the procedure: as §1
The subject of another assay is P116.c139 cells. The experiment in a line: Cell cytotoxicity assay (CellTiter-Glo). Type of assay: cell-based. How it is done: as §1
The test system of the next assay is MV-4-11 cells. The experiment in a line: Cell cytotoxicity assay (CellTiter-Glo). The class given is cell-based. How it is done:
as §1

In assay [7] the test system is BCR-ABL activity (phosphorylation of CrKl) in K562 cells. The experiment in a line: Western blot of CrKl phosphorylation in K562 cells. The class given is cell-based. On the procedure:
(§2) K562 cell line was obtained from the ATCC, and grown in RPMI supplemented with 10% FCS, L-glutamine, and penicillin/streptomycin.
(§3) Exponentially growing cells were plated at 2×10^5 cells/ml, and whole cell lysate processed for western blot analysis using antibodies recognizing eIF4E, phospho-eIF4E (Cell signaling Technology),

A further assay deals with MNK2 (Homo sapiens (Human), UniProt Q9HBH9). The assay is described as follows: In vitro MNK kinase assay (Caliper LabChip mobility shift). Type of assay: biochemical. The settings on record: enzymatic, 250 μM ATP; read-out: IC50 Mnk2.
The target in a further assay is MNK1 (Homo sapiens, UniProt Q9BUB5). The description is as above. The class given is biochemical. The settings on record: enzymatic, 1.2 mM ATP; read-out: IC50 Mnk1.
Assay [8] concerns eIF4E phosphorylation in K562 cells. The assay is described as follows: Western blot of eIF4E phosphorylation in BC-CML cell line. The class given is cell-based. The note with it: various concentrations, 24 h. How it is done: as §2, §3
For orientation: A western blot detects proteins with antibodies after separation by electrophoresis.

The subject of assay [9] is nuclear beta-catenin in BC-CML cells. The assay is described as follows: Immunofluorescence analysis of nuclear active beta-catenin. Type of assay: cell-based, human. The text has this:
Cord Blood (CB) samples were purchased from the Singapore Cord Blood bank. CML samples were the Singapore General Hospital after signed informed consent under local IRB-approved procedures. MNCs were obtained using Ficoll separation, and CD34^+ cells selected by immunomagnetic beads (Miltenyi Biotech, Germany).
Cells (1×10^5) were cytospun onto glass slides, fixed with 4% paraformaldehye, and stained with mouse monoclonal antibodies against activated β-catenin (clone 8E7, Millipore, UK), or rabbit monoclonal antibodies against phospho-eIF4E S209 (EP2151Y, Abeam, UK). Slides were then stained with either PE-conjugated anti-mouse or FITC-conjugated anti-rabbit antibodies. Images were obtained with the use of a fluorescence microscope (Olympus IX71S1F3) at 40× magnification.

The structures appear in SMILES notation. “Also recorded” adds a separate entry of the source. Where two headings read alike, the source gives them in different places.

Chain of MNK2 (Q9HBH9 84-388): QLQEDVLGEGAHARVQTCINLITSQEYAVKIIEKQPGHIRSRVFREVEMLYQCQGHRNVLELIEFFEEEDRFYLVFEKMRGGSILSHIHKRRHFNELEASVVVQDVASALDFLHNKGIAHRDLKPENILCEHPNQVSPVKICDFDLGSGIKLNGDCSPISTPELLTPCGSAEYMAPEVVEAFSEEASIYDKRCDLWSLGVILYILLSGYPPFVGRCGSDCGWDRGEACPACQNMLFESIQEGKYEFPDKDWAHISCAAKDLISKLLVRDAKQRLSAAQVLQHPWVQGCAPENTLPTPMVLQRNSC

For the molecule `Nc1ncnc2n[nH]c(Nc3ccc(F)cc3)c12` [CGP57380], in assay [1], the “accumulation of active nuclear beta-catenin in BC GMPs” value is listed as “preventes accumulation of active nuclear beta-catenin”. Besides, in the assay with BC CD34+ CML cells, the “ability of BC CD34+ CML cells to engraft NSG mice” value is given as “retarded their ability to engraft NSG mice”. Further, the “production / release of TNF by macrophage” value in assay [2] is “inhibited by MNK kinases inhibitor CGP57380 in a dose dependant fashion; also recorded: inhibits the release of TNF alpha by macrophage”. In addition, the “ability of CD34+ BC cells to serially replate for more than 8 weeks in methylcellulose” value in [3] is on record as “impaired the ability of CD34+ BC cells”. For the same molecule, the “serial transplantation of BC cells in NSG mice at 16 weeks” value in [4] is “prevented BC cells from serially transplanting NSG mice”. The “eIF4E phosphorylation in BC GMPs” value in [5] is “inhibited eIF4E phosphorylation”.
On to `CC(=O)C1=C(O)C=C2Oc3c(C(N)=O)c(O)cc(O)c3[C@]2(C)C1=O` [Cercosporamide, reference compound], for which the IC50 is greater than 50 µM in assay [6] (48 hours, read-out: IC50 after 48 hours of treatment, K562); 4.3 µM in [6] (6 days, read-out: IC50 after 6 days of treatment, K562); 20.2 µM in the assay with D1.1 cells (48 hours, read-out: IC50 after 48 hours of treatment, D1.1); 17.3 µM in the assay with D1.1 cells (6 days, read-out: IC50 after 6 days of treatment, D1.1); greater than 50 µM with P116.c139 cells (48 hours, read-out: IC50 after 48 hours of treatment, P116.c139); 4.9 µM with P116.c139 cells (6 days, read-out: IC50 after 6 days of treatment, P116.c139). The IC50 in the assay on MV-4-11 cells (48 hours, read-out: IC50 after 48 hours of treatment, MV-4-11) is greater than 50 µM; in the assay with MV-4-11 cells (6 days, read-out: IC50 after 6 days of treatment, MV-4-11), 4 µM.
Consider `N#Cc1ccc(-c2cnc3ccc(-c4ccc(C(=O)N5CCOCC5)cc4)nn23)cc1` [Example 62, 4-(6-(4-(morpholine-4-carbonyl)phenyl)imidazo[1,2-b]pyridazin-3-yl)benzonitrile], for which the “BCR-ABL activity (phosphorylation of CrKl)” value in assay [7] is “decrease in BCR-ABL activity”. The IC50 at MNK2 and on MNK1 was less than 100 nM throughout. Also, in assay [6], the “change of IC50 with treatment duration, K562 cells over-expressing eIF4E” value was “reduced by more than half”. In assay [8], the eIF4E phosphorylation entry is listed as “decrease in eIF4E phosphorylation; also recorded: prevent eIF4E phosphorylation”. In assay [9], the nuclear beta-catenin accumulation result was “decrease in nuclear beta-catenin accumulation”.
In the case of `CN1CCN(C(=O)c2ccc(-c3ccn4ncc(-c5ccc(C#N)cc5)c4n3)cc2)CC1` [Example 176, 4-(5-(4-(4-methylpiperazine-1-carbonyl)phenyl)pyrazolo[1,5-a]pyrimidin-3-yl)benzonitrile], in [7], the “BCR-ABL activity (phosphorylation of CrKl)” value is reported as “decrease in BCR-ABL activity”. Moreover, the 50% inhibitory concentration (IC50) at MNK2 and on MNK1 was less than 100 nM each time. Moreover, the “change of IC50 with treatment duration, K562 cells over-expressing eIF4E” value in [6] is listed as “reduced by more than half”. Moreover, in assay [8], the eIF4E phosphorylation result is “decrease in eIF4E phosphorylation; also recorded: prevent eIF4E phosphorylation”. The nuclear beta-catenin accumulation entry in assay [9] is “decrease in nuclear beta-catenin accumulation”.
On to `Cc1nc(Nc2ncc(C(=O)Nc3c(C)cccc3Cl)s2)cc(N2CCN(CCO)CC2)n1` [dasatinib], for which the “ability of CD34+ BC cells to serially replate for more than 8 weeks in methylcellulose” value in assay [3] is listed as “only partially impaired”. For the same molecule, in [4], the “serial transplantation of BC cells in NSG mice at 16 weeks” value is given as “not”. In addition, the “eIF4E phosphorylation in BC GMPs” value in [5] is recorded as “not”.

As usually defined, the IC50 is the concentration that inhibits the measured activity by half.

(Values after patent US9908886B2 (Agency for Science, Technology and Research, priority 2012, dated 2018).)
